Measured values reported in patent publication US10912781B2, “Pharmaceutical composition comprising licarbazepine acetate” (BIAL-Portela & C.A., S.A., priority 2007, dated 2021).

Assay: Bulk density / apparent volume (Ph. Eur. edn. 6, test 2.9.15 or USP 31 <616>)
Assay type: physicochemical
Conditions: API prior to granulation / preparation prior to forming the final formulation
Method: Suitable methods for determining the bulk density of the preparation will be well known to the skilled chemist, for example, the European Pharmacopeia edition 6, Test 2.9.15 “apparent volume”, pages 285-286, EDQM, 2007, or USP 31, vol. 1 test <616> page 231-232, The United States Pharmacopeia Convention, 2008. The apparent density of a compressed formulation is measured in terms of mass and volume of the formulation and is well within the capabilities of the skilled person.
A suitable method is described below: • Apparatus • settling apparatus capable of producing in 1 minute 250±15 taps from a height of 3±0.2 mm. The support for the graduated cylinder with its holder, has a mass of 450±5 g • a 250 ml graduated cylinder (2 ml intervals) with a mass of 220±40 g • Method • Into a dry cylinder, introduce without compacting, 100.0 g […] of the test substance. Secure the cylinder in its holder. Read the unsettled apparent volume (V0) to the nearest milliliter. Carry out 10, 500 and 1250 taps and read the corresponding volumes V10, V500, V1250, to the nearest milliliter. If the difference between V500 and V1250 is greater than 2 ml, carry out another 1250 taps. […]
Bulk/apparent density may then be determined in g/ml using the following formula: m/V0 where m is the mass in grams and V0 the unsettled apparent volume

licarbazepine acetate
Bulk density: less than 0.3 g/mL | Bulk density (listed as API): about 0.28 g/mL
